Tests used:
GSK3B = molecular target: T1, GSK3B (Homo sapiens, UniProt P49841); assay: KinomeScan; assay type: binding; settings: read-out: % Control
T1 construct: purchased DiscoveRx (Fremont, CA)

MST4 = molecular target: T2, MST4 (Homo sapiens, UniProt Q9P289); assay: KinomeScan; assay type: binding; settings: read-out: % Control
T2 construct: purchased DiscoveRx

FLT3(ITD) = assay: KinomeScan; assay type: binding; settings: 10 uM
AT1 = molecular target: T3, AT1 (Homo sapiens, UniProt P30556); assay: GPCR Profiler; assay type: cell-based
T3 construct: host or cells: Chem-1 cells with promiscuous Gα15

IKK-alpha = molecular target: T4, IKK-alpha (Homo sapiens, UniProt O15111); assay: KinomeScan; assay type: binding; settings: read-out: % Control
T4 construct: purchased DiscoveRx (Fremont, CA)

PRKCI = molecular target: T5, PRKCI (Homo sapiens, UniProt P41743); assay: KinomeScan; assay type: binding; settings: read-out: % Control
T5 construct: purchased DiscoveRx (Fremont, CA)

PAK2 = molecular target: T6, PAK2 (Homo sapiens, UniProt Q13177); assay: KinomeScan; assay type: binding; settings: read-out: % Control
T6 construct: purchased DiscoveRx

KIT(V559D) = molecular target: T7, KIT(V559D) (Homo sapiens, UniProt P10721, V559D); assay: KinomeScan; assay type: binding; settings: read-out: % Control
T7 construct: purchased DiscoveRx

ADCK4 = molecular target: T8, ADCK4 (Homo sapiens, UniProt Q96D53); assay: KinomeScan; assay type: binding; settings: read-out: % Control
T8 construct: purchased DiscoveRx (Fremont, CA)

ETA = molecular target: T9, ETA (Homo sapiens, UniProt P25101); assay: GPCR Profiler; assay type: cell-based
T9 construct: host or cells: Chem-1 cells expressing Gα15

D1 = molecular target: T10, D1 (Homo sapiens, UniProt P21728); assay: GPCR Profiler; assay type: cell-based
T10 construct: host or cells: Chem-1 cells with Gα15

p38-gamma = molecular target: T11, p38-gamma (Homo sapiens, UniProt P53778); assay: KinomeScan; assay type: binding; settings: read-out: % Control
T11 construct: purchased DiscoveRx

ROCK1 = molecular target: T12, ROCK1 (Homo sapiens, UniProt Q13464); assay: KinomeScan; assay type: binding; settings: read-out: % Control
T12 construct: purchased DiscoveRx (Fremont, CA)

BTK = molecular target: T13, BTK (Homo sapiens, UniProt Q06187); assay: KinomeScan; assay type: binding; settings: read-out: % Control
T13 construct: purchased DiscoveRx (KinomeScan service)

[1] = system: 6 independent patient derived lines (PDX and Neurospheres); assay: 2D monolayer viability (Cell Titer-Glo); assay type: cell-based; settings: Homo sapiens; range over the 6 lines; read-out: LC50 (the source's name)
Protocol: GBM neurospheres and low passage PDX models were plated in 96-well plates at 10,000 cells per well in 50 μL of neural stem cell media. The next day, the cells were treated with OGM2 compounds at the indicated concentrations, in triplicates, by adding an equal volume of medium containing 2× the final concentration of compound. Following 72 hours incubation under standard cell culture conditions, relative cell number was assessed using Cell Titer-Glo Luminescent Cell Viability Assay (Promega™) following the manufacturer's instructions. Luminescence was determined using a Cytation 5 reader and Gen5 software package (BioTek™). For U87 and U138 cell lines, one thousand cells were plated per well in a standard 96-well plate and allowed to attach for 24 hours before exposure to concentrations of vehicle, OGM2, or TMZ. Cells were treated for 72 hours and then stained with DAPI. A 10× magnification lens on a LionheartFX (BioTek™) was used to image the wells, and images were stitched together with Gen5 software (BioTek™). Automated nuclei counting was also done using the Gen5 software. Results reported as percent response relative to DMSO control. IC50 (the concentration causing 50% inhibition) was determined by GraphPad Prism™ version 6.07.
See FIG. 56, FIG. 55E, and FIG. 55F. […] Similarly.

HT-29 = assay: Cell Titer-Glo viability, Colorectal adenocarcinoma; assay type: cell-based; parameters: key to Class: Very Sensitive (LC50<2 μM); Sensitive (LC50=2 to 10 μM); Mildly Sensitive (LC50>10 μM); Refractory (no killing at 10 μM)
Protocol: OGM2 kills wide variety of cancer cell types. Cell sensitivity can be classified in to Very Sensitive (LC50<2 μM), Sensitive (LC50=2 to 10 μM), Mildly Sensitive (LC50>10 μM), and Refractory (no killing at 10 μM). The listed established cell were incubated with OGM2 at 2 μM or 10 μM for 72 hours under standard cell culture conditions, and relative cell number was assessed using Cell Titer-Glo Luminescent Cell Viability Assay (Promega™) following the manufacturer's instructions. Luminescence was determined using a Cytation 5 reader and Gen5 software package (BioTek™).
Cancer cells, which are very sensitive to killing by OGM2 (LCs <2 μM), with reported mRNA expression of GPR68 and the related proton sensing receptor GPR4. LC50's (concentrations causing 50% lethality) were determined using CellTiter-Glo (Promega™, G7570). Cells were plated in 12-well plates (CELLTREAT Scientific Products, 229112) in 1 ml of DMEM with high glucose, GlutaMAX, HEPES, or RPMI 1640 with Penicillin-Streptomycin (ThermoFisher™, 10564029, 11875119 and 15140122) and 10% FBS. Cells were incubated overnight at 37° C. in 5% CO2. Then 1 mL of fresh media was added with DMSO, OGM, or positive control (Erastin; APExBIO Technology, LLC, B1524) and cells incubated for 3 days. On the third day, all media was removed, cells were rinsed with 1×PBS, PBS was removed, and 200 μL of 1× Passive Lysis Buffer (Promega™, E1941) was added to each well. […]. Subsequently, 20 μL of lysate was added to 100 μL CellTiter-Glo™ reagent on a LUMITRAC 200 plate (Greiner™ bio-one, 82050-726). Plates were briefly spun down and read on a GloMax-Multi Detection System (Promega™).
The cells listed in the tables above were incubated with OGM2 at 2 μM or 10 μM for 72 hours under standard cell culture conditions, and relative cell number was assessed using Cell Titer-Glo Luminescent Cell Viability Assay (Promega™) following the manufacturer's instructions. Luminescence was determined using a Cytation 5 reader and Gen5 software package (BioTek™). RNA expression of GPR68 and GPR4 in the corresponding cancer cell lines are listed, according to the publicly available The Human Protein Atlas version 22.0 and Ensembl version 103.38 (see proteinatlas.org). The consensus normalized expression value (“nTPM”=normalize transcript per million) was calculated as the maximum nTPM value for each gene in the two data sources.

T9 sequence (P25101 21-427): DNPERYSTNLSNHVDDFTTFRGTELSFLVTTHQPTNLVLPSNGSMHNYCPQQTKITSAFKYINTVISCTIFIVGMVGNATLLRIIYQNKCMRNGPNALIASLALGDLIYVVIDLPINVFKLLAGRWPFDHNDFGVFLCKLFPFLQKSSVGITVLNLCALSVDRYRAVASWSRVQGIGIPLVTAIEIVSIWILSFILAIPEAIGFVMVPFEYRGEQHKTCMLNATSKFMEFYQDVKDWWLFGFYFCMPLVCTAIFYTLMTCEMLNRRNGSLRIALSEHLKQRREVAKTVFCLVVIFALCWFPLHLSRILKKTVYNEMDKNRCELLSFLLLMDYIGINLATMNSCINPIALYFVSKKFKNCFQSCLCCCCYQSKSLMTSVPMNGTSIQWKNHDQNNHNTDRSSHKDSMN
T3 sequence (P30556 whole entry): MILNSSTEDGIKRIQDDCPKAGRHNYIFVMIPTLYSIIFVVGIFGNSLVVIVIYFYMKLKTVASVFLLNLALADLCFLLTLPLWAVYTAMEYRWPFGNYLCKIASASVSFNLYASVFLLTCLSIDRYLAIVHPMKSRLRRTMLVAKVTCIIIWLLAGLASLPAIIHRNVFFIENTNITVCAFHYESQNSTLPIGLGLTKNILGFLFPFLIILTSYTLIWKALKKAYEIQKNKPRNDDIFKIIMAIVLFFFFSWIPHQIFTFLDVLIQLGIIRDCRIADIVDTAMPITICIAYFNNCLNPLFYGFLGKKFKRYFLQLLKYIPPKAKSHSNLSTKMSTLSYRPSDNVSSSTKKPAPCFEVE
T10 sequence (P21728 whole entry): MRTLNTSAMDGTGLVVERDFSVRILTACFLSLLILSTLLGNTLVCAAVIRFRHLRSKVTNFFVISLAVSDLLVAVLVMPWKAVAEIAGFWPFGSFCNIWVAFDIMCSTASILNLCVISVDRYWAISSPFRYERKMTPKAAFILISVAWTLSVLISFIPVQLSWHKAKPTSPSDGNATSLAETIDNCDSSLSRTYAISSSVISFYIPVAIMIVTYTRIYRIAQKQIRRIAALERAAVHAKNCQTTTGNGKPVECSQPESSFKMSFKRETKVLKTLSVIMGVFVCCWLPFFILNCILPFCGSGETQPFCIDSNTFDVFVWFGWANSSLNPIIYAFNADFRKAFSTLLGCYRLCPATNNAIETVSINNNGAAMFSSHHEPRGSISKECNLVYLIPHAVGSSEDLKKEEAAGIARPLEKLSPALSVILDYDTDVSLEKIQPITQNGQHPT
T5 sequence (P41743 whole entry): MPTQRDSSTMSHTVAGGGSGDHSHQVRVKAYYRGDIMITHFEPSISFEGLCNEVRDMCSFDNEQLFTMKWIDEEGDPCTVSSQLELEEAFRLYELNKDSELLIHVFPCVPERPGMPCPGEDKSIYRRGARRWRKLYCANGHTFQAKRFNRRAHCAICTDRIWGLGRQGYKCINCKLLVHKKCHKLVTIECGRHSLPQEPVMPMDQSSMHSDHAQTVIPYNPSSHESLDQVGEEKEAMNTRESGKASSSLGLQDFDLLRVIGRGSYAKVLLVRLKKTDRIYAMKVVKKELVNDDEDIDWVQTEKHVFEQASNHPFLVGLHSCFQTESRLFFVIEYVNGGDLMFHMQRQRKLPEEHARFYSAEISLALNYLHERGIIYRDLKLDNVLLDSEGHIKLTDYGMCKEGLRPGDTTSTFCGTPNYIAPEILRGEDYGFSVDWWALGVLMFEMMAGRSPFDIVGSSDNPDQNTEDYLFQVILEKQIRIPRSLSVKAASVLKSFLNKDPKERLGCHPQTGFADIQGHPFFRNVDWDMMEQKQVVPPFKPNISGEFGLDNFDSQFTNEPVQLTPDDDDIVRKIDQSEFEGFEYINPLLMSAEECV
T8 sequence (Q96D53 whole entry): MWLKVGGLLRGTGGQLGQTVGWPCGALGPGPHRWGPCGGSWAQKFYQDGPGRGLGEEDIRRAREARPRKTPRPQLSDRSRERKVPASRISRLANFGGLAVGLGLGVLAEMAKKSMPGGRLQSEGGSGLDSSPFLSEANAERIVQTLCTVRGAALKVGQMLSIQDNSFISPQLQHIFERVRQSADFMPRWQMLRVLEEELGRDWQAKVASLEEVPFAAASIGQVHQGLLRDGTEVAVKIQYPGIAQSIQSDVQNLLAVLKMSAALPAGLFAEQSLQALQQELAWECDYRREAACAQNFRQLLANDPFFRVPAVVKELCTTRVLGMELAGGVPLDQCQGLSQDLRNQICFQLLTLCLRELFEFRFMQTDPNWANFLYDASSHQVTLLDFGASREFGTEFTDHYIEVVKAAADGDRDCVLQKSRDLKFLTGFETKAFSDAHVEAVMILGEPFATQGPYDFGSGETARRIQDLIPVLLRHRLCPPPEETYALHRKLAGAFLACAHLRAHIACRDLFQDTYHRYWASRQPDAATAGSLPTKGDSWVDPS
T13 sequence (Q06187 whole entry): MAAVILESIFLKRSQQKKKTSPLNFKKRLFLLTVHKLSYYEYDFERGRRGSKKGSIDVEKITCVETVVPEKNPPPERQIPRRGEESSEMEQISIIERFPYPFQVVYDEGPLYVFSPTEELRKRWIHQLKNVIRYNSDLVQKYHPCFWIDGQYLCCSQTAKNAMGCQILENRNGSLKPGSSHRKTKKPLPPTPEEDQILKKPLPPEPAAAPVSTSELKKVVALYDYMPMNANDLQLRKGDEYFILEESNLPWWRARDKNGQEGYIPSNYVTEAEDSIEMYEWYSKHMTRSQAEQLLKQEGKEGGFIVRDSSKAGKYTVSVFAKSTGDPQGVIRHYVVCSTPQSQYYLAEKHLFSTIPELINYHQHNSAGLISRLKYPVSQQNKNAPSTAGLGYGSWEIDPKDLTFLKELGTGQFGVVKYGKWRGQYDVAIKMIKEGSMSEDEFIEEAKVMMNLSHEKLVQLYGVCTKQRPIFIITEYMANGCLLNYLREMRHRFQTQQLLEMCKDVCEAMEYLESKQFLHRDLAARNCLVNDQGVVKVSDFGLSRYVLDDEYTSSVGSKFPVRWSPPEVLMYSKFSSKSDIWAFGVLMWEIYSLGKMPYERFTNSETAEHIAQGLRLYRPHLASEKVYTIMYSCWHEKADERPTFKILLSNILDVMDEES
T2 sequence (Q9P289 whole entry): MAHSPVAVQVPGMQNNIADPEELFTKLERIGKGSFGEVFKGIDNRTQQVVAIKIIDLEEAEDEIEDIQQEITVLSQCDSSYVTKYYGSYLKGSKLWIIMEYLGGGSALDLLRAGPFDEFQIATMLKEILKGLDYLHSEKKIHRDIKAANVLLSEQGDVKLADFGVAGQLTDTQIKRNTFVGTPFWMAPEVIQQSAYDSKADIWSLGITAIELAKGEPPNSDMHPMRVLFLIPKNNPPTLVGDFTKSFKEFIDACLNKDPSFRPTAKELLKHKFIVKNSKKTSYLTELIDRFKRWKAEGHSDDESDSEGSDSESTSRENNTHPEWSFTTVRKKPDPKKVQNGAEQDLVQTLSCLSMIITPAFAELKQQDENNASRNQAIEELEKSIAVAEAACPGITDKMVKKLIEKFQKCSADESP
T12 sequence (Q13464 whole entry): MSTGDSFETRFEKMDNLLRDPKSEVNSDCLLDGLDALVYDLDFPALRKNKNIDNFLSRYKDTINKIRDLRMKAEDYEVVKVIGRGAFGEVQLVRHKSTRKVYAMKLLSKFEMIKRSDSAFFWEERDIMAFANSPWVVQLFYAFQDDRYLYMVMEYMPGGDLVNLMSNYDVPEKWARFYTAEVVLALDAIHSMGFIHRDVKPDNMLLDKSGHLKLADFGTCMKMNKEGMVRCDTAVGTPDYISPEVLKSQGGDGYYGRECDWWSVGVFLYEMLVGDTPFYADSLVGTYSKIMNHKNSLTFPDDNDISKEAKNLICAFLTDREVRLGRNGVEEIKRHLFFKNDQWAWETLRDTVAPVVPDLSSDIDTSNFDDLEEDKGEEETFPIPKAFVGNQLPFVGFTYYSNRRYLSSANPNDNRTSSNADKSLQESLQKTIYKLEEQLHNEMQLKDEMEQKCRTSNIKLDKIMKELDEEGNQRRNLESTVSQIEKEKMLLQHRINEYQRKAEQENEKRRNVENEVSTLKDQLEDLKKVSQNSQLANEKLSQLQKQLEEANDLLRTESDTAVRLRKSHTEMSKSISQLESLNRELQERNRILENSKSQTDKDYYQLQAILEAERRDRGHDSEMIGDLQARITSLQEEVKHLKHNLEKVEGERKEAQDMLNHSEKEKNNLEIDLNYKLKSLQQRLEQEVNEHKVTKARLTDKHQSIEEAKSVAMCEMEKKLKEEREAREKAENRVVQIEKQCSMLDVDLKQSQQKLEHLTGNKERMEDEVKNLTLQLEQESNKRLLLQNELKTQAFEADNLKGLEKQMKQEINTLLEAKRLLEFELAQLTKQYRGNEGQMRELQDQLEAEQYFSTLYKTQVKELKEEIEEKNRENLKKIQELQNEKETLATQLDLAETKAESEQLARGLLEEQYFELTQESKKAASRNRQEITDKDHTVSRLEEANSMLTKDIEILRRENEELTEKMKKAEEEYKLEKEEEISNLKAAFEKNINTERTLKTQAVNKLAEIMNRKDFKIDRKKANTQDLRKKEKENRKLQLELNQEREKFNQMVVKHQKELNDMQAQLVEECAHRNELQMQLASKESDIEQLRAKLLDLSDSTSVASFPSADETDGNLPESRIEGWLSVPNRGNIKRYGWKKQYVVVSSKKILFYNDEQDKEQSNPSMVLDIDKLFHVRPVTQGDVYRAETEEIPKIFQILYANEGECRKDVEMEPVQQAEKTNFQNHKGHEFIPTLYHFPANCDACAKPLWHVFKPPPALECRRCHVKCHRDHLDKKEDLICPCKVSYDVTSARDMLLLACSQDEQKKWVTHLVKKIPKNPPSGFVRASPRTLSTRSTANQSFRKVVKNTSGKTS

## CCc1ccc2c(c1)C1(NN=C(c3cccc4ccccc34)S1)C(=O)N2 (stereo not shown) [OGM1, 5-ethyl-5′-naphthalen-1-ylspiro[1H-indole-3,2′-3H-1,3,4-thiadiazole]-2-one]
GSK3B
  remaining binding at 10 µM: 83%
MST4
  remaining binding at 10 µM: 81%
FLT3(ITD)
  % Control: 100%
AT1; 10 uM
  Antagonism: −0.7
AT1; 12.5 uM
  Agonism: −0.4
IKK-alpha
  remaining binding at 10 µM: 83%
PRKCI
  remaining binding at 10 µM: 94%
PAK2
  remaining binding at 10 µM: 72%
KIT(V559D)
  remaining binding at 10 µM: 71%
ADCK4
  remaining binding at 10 µM: 70%
ETA; 10 uM
  Antagonism: 4.7
ETA; 12.5 uM
  Agonism: 0.1
D1; 10 uM
  Antagonism: 5
D1; 12.5 uM
  Agonism: 0
p38-gamma
  remaining binding at 10 µM: 94%
ROCK1
  remaining binding at 10 µM: 71%
BTK
  remaining binding at 10 µM: 88%

## CCc1ccc2c(c1)C1(NN=C(c3ccccc3)S1)C(=O)N2 (stereo not shown) [OGM2]
[1]
  CC50: 0.42 to 2.7 µM
HT-29
  Class: Refractory
HT-29; 72 hours
  % Survival 2 μM OGM: 102.8%
  % Survival 10 μM OGM: 103.9%
  LC50 (μM): No
